Measurements reported in US8722849B2, “Polypeptides” (Novo Nordisk A/S, priority 2011, dated 2014).
Starred links: 1 amine or outer side, 2 acyl side, 3 side chain; linkers in the order of their positions; H or OH if unused. Positions of bridges follow the written chain, without caps; N, C: chain ends. Residues, ends and D or L forms follow the SMILES beside them. *: point of attachment. C20 diacid = O=C(O)CCCCCCCCCCCCCCCCCCC(=O)*; γGlu = O=C(O)[C@H](CCC(=O)[*:2])N[*:1]

Experiments:
Type in all cases: cell-based
[1] = target: T1, rat calcitonin (a) receptor (Rattus norvegicus, UniProt P32214); assay: Assay (II)b functional cAMP FlashPlate assay, rat calcitonin receptor; settings: Table 11; read-out: CTa receptor rat EC50
T1 construct: expressed in transfected cells; host or cells: BHK tk'ts 13
T1 sequence (P32214 25-479 isoform P32214-2 limits assumed): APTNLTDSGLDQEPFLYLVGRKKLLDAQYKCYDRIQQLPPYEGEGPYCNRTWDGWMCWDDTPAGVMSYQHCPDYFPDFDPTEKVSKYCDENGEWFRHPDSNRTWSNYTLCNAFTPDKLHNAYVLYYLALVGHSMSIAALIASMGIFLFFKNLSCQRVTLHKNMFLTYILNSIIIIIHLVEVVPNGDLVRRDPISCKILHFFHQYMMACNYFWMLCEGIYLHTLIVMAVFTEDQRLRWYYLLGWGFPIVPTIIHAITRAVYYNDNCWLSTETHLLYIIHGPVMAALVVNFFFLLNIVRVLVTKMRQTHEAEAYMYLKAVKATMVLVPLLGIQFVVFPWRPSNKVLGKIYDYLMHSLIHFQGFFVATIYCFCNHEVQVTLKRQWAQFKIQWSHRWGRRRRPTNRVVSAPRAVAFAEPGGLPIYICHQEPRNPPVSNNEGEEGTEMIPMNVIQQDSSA
Summary of the method: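 BHK tk'ts 13 cells transiently transfected with rat calcitonin(a) receptor, alone or with rat RAMP3 (amylin 3(a)), were stimulated 24 hours later with sample for 30 min in buffer containing IBMX. cAMP measured by competitive radioactive FlashPlate assay, scintillation read after 3 h detection incubation.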

[2] = target: T2, human amylin receptor (amylin 3(a) receptor: human calcitonin receptor + RAMP-3) (Homo sapiens, UniProt O60896+P30988); assay: Assay (II)a functional CRE-luciferase assay, human amylin receptor; settings: Table 2; BHK amylin 3(a)-receptor/CRE-luc cells
T2 construct: expressed in transfected cells; host or cells: BHK570
T2 sequence (P30988 25-474): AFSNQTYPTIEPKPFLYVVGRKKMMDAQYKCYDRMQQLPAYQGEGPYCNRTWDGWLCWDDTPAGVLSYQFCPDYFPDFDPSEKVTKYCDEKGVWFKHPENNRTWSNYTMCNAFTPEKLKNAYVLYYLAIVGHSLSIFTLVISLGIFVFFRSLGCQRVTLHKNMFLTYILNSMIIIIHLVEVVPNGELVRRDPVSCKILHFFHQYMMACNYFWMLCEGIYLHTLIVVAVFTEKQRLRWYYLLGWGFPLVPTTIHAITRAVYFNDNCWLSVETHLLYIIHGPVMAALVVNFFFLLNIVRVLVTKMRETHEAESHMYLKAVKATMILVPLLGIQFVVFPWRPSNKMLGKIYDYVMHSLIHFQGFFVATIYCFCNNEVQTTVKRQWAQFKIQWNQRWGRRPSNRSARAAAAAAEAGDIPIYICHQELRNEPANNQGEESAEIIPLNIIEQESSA
T2 sequence (O60896 24-148 partner): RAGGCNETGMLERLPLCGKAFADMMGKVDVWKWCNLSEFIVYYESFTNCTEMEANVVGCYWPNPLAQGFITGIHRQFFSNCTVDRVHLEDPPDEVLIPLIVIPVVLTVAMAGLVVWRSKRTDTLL

[3] = target: T3, human calcitonin receptor (Homo sapiens, UniProt P30988); assay: Assay (II)a functional CRE-luciferase assay, human calcitonin receptor; settings: Table 7; human calcitonin (CTa) receptor
T3 construct: expressed in transfected cells; host or cells: BHK570
T3 sequence (P30988 25-474): T2 sequence (P30988 25-474)

EC50 [1] | EC50 [2] | EC50 [3] | Structure (SMILES)
5350 pM | 217 pM | 342 pM | CC(C)C[C@H](NC(=O)[C@H](CCCNC(=N)N)NC(=O)[C@H](CCC(N)=O)NC(=O)[C@@H](NC(=O)[C@H](C)NC(=O)[C@@H]1CSSC[C@H](NC(=O)[C@H](CCCCN)NC(=O)CC[C@H](NC(=O)CCCCCCCCCCCCCCCCCCC(=O)O)C(=O)O)C(=O)N[C@@H](CC(N)=O)C(=O)N[C@@H]([C@@H](C)O)C(=O)N[C@@H](C)C(=O)N[C@@H]([C@@H](C)O)C(=O)N1)[C@@H](C)O)C(=O)N[C@@H](C)C(=O)N[C@@H](CCC(=O)O)C(=O)N[C@@H](Cc1ccccc1)C(=O)N[C@@H](CC(C)C)C(=O)N[C@@H](CCCNC(=N)N)C(=O)N[C@@H](Cc1c[nH]cn1)C(=O)N[C@@H](CO)C(=O)N[C@@H](CO)C(=O)N[C@@H](CC(N)=O)C(=O)N[C@@H](CC(N)=O)C(=O)N[C@@H](Cc1ccccc1)C(=O)NCC(=O)N[C@@H](C)C(=O)N1CCC[C@H]1C(=O)N[C@@H](CC(C)C)C(=O)N[C@@H](CO)C(=O)N[C@@H](CO)C(=O)N[C@H](C(=O)N[C@@H](CC(N)=O)C(=O)N[C@H](C(=O)NCC(=O)N[C@@H](CO)C(=O)N[C@@H](Cc1c[nH]cn1)C(=O)N[C@H](C(=O)N[C@@H](Cc1ccc(O)cc1)C(N)=O)[C@@H](C)O)C(C)C)[C@@H](C)O [Example 65, N-alpha-[(S)-4-Carboxy-4-(19-carboxynonadecanoylamino)butyryl]-[Glu14,Arg17,Ala25,Pro26,Ser28,Ser29,His35]-pramlintide] ({C20 diacid-γGlu}-KCNTATCATQRLAEFLRHSSNNFGAPLSSTNVGSHTY-NH2; disulfide 2-7 (inferred); C-terminus assumed)
656 pM | 182 pM | 210 pM | CC[C@H](C)[C@H](NC(=O)[C@@H]1CCCN1C(=O)CNC(=O)[C@H](Cc1ccccc1)NC(=O)[C@H](CC(N)=O)NC(=O)[C@H](CC(N)=O)NC(=O)[C@H](CO)NC(=O)[C@H](CO)NC(=O)[C@H](Cc1c[nH]cn1)NC(=O)[C@H](Cc1c[nH]cn1)NC(=O)[C@H](CC(C)C)NC(=O)[C@H](Cc1ccccc1)NC(=O)[C@H](CCC(=O)O)NC(=O)[C@H](C)NC(=O)[C@H](CC(C)C)NC(=O)[C@H](CCCNC(=N)N)NC(=O)[C@H](CCC(N)=O)NC(=O)[C@@H](NC(=O)[C@H](C)NC(=O)[C@@H]1CSSC[C@H](NC(=O)[C@H](CCCCN)NC(=O)[C@H](Cc2c[nH]cn2)NC(=O)CC[C@H](NC(=O)CCCCCCCCCCCCCCCCCCC(=O)O)C(=O)O)C(=O)N[C@@H](CC(N)=O)C(=O)N[C@@H]([C@@H](C)O)C(=O)N[C@@H](C)C(=O)N[C@@H]([C@@H](C)O)C(=O)N1)[C@@H](C)O)C(=O)N[C@@H](CC(C)C)C(=O)N1CCC[C@H]1C(=O)N1CCC[C@H]1C(=O)N[C@H](C(=O)N[C@@H](CC(N)=O)C(=O)N[C@H](C(=O)NCC(=O)N[C@@H](CO)C(=O)N[C@@H](Cc1c[nH]cn1)C(=O)N[C@H](C(=O)N[C@@H](Cc1ccc(O)cc1)C(N)=O)[C@@H](C)O)C(C)C)[C@@H](C)O [Example 66, N-alpha-[(S)-4-Carboxy-4-(19-carboxynonadecanoylamino)butyryl]-His-[Glu14,His17,His35]-pramlintide] ({C20 diacid-γGlu}-HKCNTATCATQRLAEFLHHSSNNFGPILPPTNVGSHTY-NH2; disulfide 3-8 (inferred); C-terminus assumed)
